# Data published in ChEMBL document CHEMBL3758105 (J Med Chem, 2016).
# Target: T1, Organic anion transporter 3 (Homo sapiens, UniProt Q8TCC7)
# T1 sequence (Q8TCC7 whole entry): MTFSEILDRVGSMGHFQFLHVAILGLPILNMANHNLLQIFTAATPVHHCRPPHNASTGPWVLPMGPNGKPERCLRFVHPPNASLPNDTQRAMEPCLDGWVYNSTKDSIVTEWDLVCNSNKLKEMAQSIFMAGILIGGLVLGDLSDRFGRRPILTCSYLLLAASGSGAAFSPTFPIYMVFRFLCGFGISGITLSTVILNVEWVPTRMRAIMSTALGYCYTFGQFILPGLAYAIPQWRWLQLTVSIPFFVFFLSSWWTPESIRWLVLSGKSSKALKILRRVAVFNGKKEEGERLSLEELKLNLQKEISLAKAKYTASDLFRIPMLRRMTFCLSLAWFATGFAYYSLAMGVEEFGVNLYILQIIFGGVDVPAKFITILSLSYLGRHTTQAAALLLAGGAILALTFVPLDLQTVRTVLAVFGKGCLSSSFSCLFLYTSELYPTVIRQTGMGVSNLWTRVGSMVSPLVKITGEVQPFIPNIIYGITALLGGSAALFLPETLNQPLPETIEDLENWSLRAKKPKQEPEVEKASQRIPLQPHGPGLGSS
# Experiment: Inhibition of human OAT3 expressed in HEK cells assessed as reduction of [3H]-estrone sulfate uptake by radioactivity counting analysis
# Format: cell-based, HEK293
# Conditions: not given
row,IC50,SMILES
1,18 µM,Cn1c(=O)n(Cc2ccc(C(=O)O)cc2)c(=O)c2cc(C#CCc3ccccc3)ccc21
2,6 µM,Cc1cc(-c2nnn(C[C@H]3CC[C@H](C(=O)O)CC3)n2)cc(C(=O)NCc2ccc(F)cc2)n1

# Tested on: not listed separately
# Experiment: Intrinsic clearance in human liver microsomes measured over 40 mins by HPLC/MS analysis
# Format: ADME
# Conditions: read-out: CLH
row,microsomal CLint,SMILES
1,< 8 µL/min/mg,COc1cccc(CNC(=O)c2cc(-c3nnn(C[C@H]4CC[C@H](NS(C)(=O)=O)CC4)n3)cc(C)n2)c1
2,24.7 µL/min/mg,COc1cccc(CNC(=O)c2cc(-c3nnn(C[C@H]4CC[C@H](NC(C)=O)CC4)n3)cc(C)n2)c1

# Target: CYP2C9 (Homo sapiens, UniProt P11712)
# Experiment: Inhibition of CYP2C9 in human liver microsomes assessed as reduction of diclofenac metabolism at 3 uM after 8 mins
# Format: ADME
# Conditions: probe diclofenac
# CYP2C9, sequence (P11712 whole entry): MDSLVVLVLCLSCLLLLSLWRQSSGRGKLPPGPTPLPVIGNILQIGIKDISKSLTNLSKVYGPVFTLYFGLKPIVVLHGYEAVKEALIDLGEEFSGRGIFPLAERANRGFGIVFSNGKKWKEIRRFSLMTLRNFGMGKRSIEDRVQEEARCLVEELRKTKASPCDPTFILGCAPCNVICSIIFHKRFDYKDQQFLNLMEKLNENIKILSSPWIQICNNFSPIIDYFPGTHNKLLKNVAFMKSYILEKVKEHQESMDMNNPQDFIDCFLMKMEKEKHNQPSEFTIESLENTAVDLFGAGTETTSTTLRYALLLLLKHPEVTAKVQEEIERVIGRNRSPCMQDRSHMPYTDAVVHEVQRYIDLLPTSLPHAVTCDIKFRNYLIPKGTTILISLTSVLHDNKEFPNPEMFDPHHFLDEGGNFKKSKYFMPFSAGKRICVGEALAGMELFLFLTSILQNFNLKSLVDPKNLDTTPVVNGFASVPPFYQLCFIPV
row,"inhibition at 8 min, 3 µM",SMILES
1,93%,Cc1cccc(CNC(=O)c2cc(-c3nnn(C[C@H]4CC[C@H](CO)CC4)n3)cc(C)n2)c1
2,90%,Cc1cc(-c2nnn(C[C@H]3CC[C@H](CO)CC3)n2)cc(C(=O)NCc2ccc(F)c(C(F)(F)F)c2)n1
3,78%,Cc1cc(-c2nnn(C[C@H]3CC[C@H](CO)CC3)n2)cc(C(=O)NCc2ccccc2)n1
4,83%,Cc1cc(-c2nnn(C[C@H]3CC[C@H](CO)CC3)n2)cc(C(=O)NCc2ccc(F)c(F)c2)n1
5,96%,Cc1cc(-c2nnn(C[C@H]3CC[C@H](CO)CC3)n2)cc(C(=O)NCc2ccc(F)c(C)c2)n1
6,56%,Cc1cc(-c2nnn(C[C@H]3CC[C@H](CO)CC3)n2)cc(C(=O)NCc2ccc(F)cc2)n1

# Target: Stromelysin-1 (Homo sapiens, UniProt P08254)
# Experiment: Inhibition of MMP3 (unknown origin) catalytic domain using MCA-Arg-Pro-Leu-Gly-Leu-Dpa-Ala-Arg-Glu-Arg-NH2 as substrate preincubated for 60 mins followed by substrate addition by fluorescence assay
# Conditions: not given
# Stromelysin-1, sequence (P08254 whole entry, the tested form may be a part): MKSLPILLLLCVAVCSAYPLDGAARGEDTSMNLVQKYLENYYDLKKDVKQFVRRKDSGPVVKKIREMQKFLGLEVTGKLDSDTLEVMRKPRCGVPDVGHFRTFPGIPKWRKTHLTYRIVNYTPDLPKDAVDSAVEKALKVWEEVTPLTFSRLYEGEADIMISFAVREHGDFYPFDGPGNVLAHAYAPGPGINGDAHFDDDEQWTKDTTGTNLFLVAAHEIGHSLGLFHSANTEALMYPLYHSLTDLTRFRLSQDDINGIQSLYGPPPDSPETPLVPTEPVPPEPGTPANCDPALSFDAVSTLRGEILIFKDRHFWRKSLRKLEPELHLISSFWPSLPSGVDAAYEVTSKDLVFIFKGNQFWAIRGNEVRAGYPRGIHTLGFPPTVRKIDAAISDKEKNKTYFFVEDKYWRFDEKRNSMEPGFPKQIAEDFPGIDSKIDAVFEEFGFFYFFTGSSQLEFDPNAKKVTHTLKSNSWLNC
row,Ki,SMILES
1,> 10 µM,COc1cccc(CNC(=O)c2cc(-c3nnn(C[C@H]4CC[C@H](NS(C)(=O)=O)CC4)n3)cc(C)n2)c1
2,> 10 µM,COc1cccc(CNC(=O)c2cc(-c3nnn(C[C@H]4CC[C@H](NC(C)=O)CC4)n3)cc(C)n2)c1

# Tested on: not listed separately
# Experiment: Half life of the compound assessed as compound rearrangement
# Format: physicochemical
# Conditions: not given
row,half-life,SMILES
1,67 h,Cc1cc(-c2nnn(C[C@H]3CC[C@H](C(=O)O)CC3)n2)cc(C(=O)NCc2ccc(F)cc2)n1

# Tested on: not listed separately
# Experiment: Clearance in Sprague-Dawley rat at 0.2 mg/kg, iv administered as cassette bolus dose by LC-MS/MS analysis
# Format: ADME, organism-based
# Conditions: in vivo
row,clearance,SMILES
1,42.6 mL/min/kg,COc1cccc(CNC(=O)c2cc(-c3nnn(C[C@H]4CC[C@H](NS(C)(=O)=O)CC4)n3)cc(C)n2)c1
2,77.6 mL/min/kg,COc1cccc(CNC(=O)c2cc(-c3nnn(C[C@H]4CC[C@H](NC(C)=O)CC4)n3)cc(C)n2)c1

# Target: Collagenase 3 (Homo sapiens, UniProt P45452)
# Experiment: Inhibition of full length human recombinant MMP13 using MCA-Arg-Pro-Leu-Gly-Leu-Dpa-Ala-Arg-Glu-Arg-NH2 as substrate preincubated for 60 mins followed by substrate addition by fluorescence assay
# Conditions: not given
row,SMILES,Ki
1,Cc1cc(-c2nnn(C[C@H]3CC[C@H](CO)CC3)n2)cc(C(=O)NCc2ccc(F)c(C(F)(F)F)c2)n1,0.0063 µM
2,Cc1cc(-c2nnn(C[C@H]3CC[C@H](CO)CC3)n2)cc(C(=O)NCc2ccccc2)n1,0.119 µM
3,Cc1cc(-c2nnn(C[C@H]3CC[C@H](CO)CC3)n2)cc(C(=O)NCc2ccc(F)c(F)c2)n1,0.0293 µM
4,Cc1cc(-c2nnn(C[C@H]3CC[C@H](CO)CC3)n2)cc(C(=O)NCc2ccc(F)c(C)c2)n1,0.0038 µM
5,Cc1cc(-c2nnn(C[C@H]3CC[C@H](CO)CC3)n2)cc(C(=O)NCc2ccc(F)cc2)n1,0.0329 µM

# The remaining lines, values ahead:
row,Ki,SMILES
1,0.0472 µM,Cc1cccc(CNC(=O)c2cc(-c3nnn(C[C@H]4CC[C@H](CO)CC4)n3)cc(C)n2)c1
2,0.00025 µM,COc1cccc(CNC(=O)c2cc(-c3nnn(C[C@H]4CC[C@H](NS(C)(=O)=O)CC4)n3)cc(C)n2)c1
3,0.002 µM,COc1cccc(CNC(=O)c2cc(-c3nnn(C[C@H]4CC[C@H](NC(C)=O)CC4)n3)cc(C)n2)c1
